From the NIST ThermoML archive (doi:10.1016/j.jct.2016.07.032)
Numbers after ± are expanded uncertainties.

Key:
[1] = xn = mol fraction of the nth substance listed; settings: 101.3 kPa, Liquid; for speed of sound: Frequency=3 MHz, Sing-around technique in a fixed-path interferometer; for mass density: Vibrating tube method
[2] = refractive index (Na D-line) (dimensionless); xn = mol fraction of the nth substance listed; settings: 101.3 kPa, Liquid, Standard Abbe refractometry

CCOc1ccccc1 [ethoxybenzene] + C1CCOC1
Settings	mass density, 298 K [kg/m3]	mass density, 303 K [kg/m3]	mass density, 308 K [kg/m3]	refractive index, 298 K	refractive index, 303 K	refractive index, 308 K	speed of sound, 298 K [m/s]	speed of sound, 303 K [m/s]	speed of sound, 308 K [m/s]
[1], x1 = 0.031	886 ± 2	883 ± 2	878 ± 2	–	–	–	1279 ± 2	1255 ± 2	1230 ± 2
[1], x1 = 0.072	892 ± 2	888 ± 2	883 ± 2	–	–	–	1281 ± 2	1256 ± 2	1231 ± 2
[1], x1 = 0.117	897 ± 2	893 ± 2	888 ± 2	–	–	–	1283 ± 2	1258 ± 2	1233 ± 2
[1], x1 = 0.197	905 ± 2	901 ± 2	897 ± 2	–	–	–	1287 ± 2	1262 ± 2	1237 ± 2
[1], x1 = 0.246	910 ± 2	906 ± 2	902 ± 2	–	–	–	1289 ± 2	1265 ± 2	1241 ± 2
[1], x1 = 0.326	918 ± 2	913 ± 2	909 ± 2	–	–	–	1295 ± 2	1271 ± 2	1247 ± 2
[1], x1 = 0.492	931 ± 2	927 ± 2	922 ± 2	–	–	–	1310 ± 2	1287 ± 2	1264 ± 2
[1], x1 = 0.695	944 ± 2	940 ± 2	935 ± 2	–	–	–	1332 ± 2	1309 ± 2	1287 ± 2
[1], x1 = 0.899	955 ± 2	951 ± 2	946 ± 2	–	–	–	1356 ± 2	1334 ± 2	1314 ± 2
[1], x1 = 1	960 ± 2	955 ± 2	951 ± 2	–	–	–	1369 ± 2	1349 ± 2	1329 ± 2
[2], x1 = 0.031	–	–	–	1.41 ± 0.002	1.408 ± 0.002	1.405 ± 0.002	–	–	–
[2], x1 = 0.072	–	–	–	1.417 ± 0.002	1.414 ± 0.002	1.412 ± 0.002	–	–	–
[2], x1 = 0.117	–	–	–	1.424 ± 0.002	1.422 ± 0.002	1.419 ± 0.002	–	–	–
[2], x1 = 0.197	–	–	–	1.436 ± 0.002	1.433 ± 0.002	1.43 ± 0.002	–	–	–
[2], x1 = 0.246	–	–	–	1.443 ± 0.002	1.44 ± 0.002	1.437 ± 0.002	–	–	–
[2], x1 = 0.326	–	–	–	1.453 ± 0.002	1.45 ± 0.002	1.447 ± 0.002	–	–	–
[2], x1 = 0.492	–	–	–	1.472 ± 0.002	1.469 ± 0.002	1.466 ± 0.002	–	–	–
[2], x1 = 0.695	–	–	–	1.49 ± 0.002	1.487 ± 0.002	1.483 ± 0.002	–	–	–
[2], x1 = 0.899	–	–	–	1.502 ± 0.002	1.499 ± 0.002	1.494 ± 0.002	–	–	–
[2], x1 = 1	–	–	–	1.505 ± 0.002	1.503 ± 0.002	1.499 ± 0.002	–	–	–

CCOc1ccccc1 [ethoxybenzene] + CN1CCCC1=O
Settings	mass density, 298 K [kg/m3]	mass density, 303 K [kg/m3]	mass density, 308 K [kg/m3]	refractive index, 298 K	refractive index, 303 K	refractive index, 308 K	speed of sound, 298 K [m/s]	speed of sound, 303 K [m/s]	speed of sound, 308 K [m/s]
[1], x1 = 0.041	1023 ± 2	1019 ± 2	1015 ± 2	–	–	–	1534 ± 2	1515 ± 2	1497 ± 2
[1], x1 = 0.122	1018 ± 2	1014 ± 2	1010 ± 2	–	–	–	1513 ± 2	1495 ± 2	1477 ± 2
[1], x1 = 0.201	1013 ± 2	1009 ± 2	1005 ± 2	–	–	–	1495 ± 2	1477 ± 2	1460 ± 2
[1], x1 = 0.273	1008 ± 2	1004 ± 2	1000 ± 2	–	–	–	1480 ± 2	1462 ± 2	1445 ± 2
[1], x1 = 0.37	1001 ± 2	997 ± 2	993 ± 2	–	–	–	1460 ± 2	1443 ± 2	1427 ± 2
[1], x1 = 0.504	992 ± 2	988 ± 2	983 ± 2	–	–	–	1437 ± 2	1420 ± 2	1403 ± 2
[1], x1 = 0.628	983 ± 2	979 ± 2	975 ± 2	–	–	–	1418 ± 2	1400 ± 2	1383 ± 2
[1], x1 = 0.709	978 ± 2	974 ± 2	969 ± 2	–	–	–	1406 ± 2	1388 ± 2	1370 ± 2
[1], x1 = 0.822	971 ± 2	966 ± 2	962 ± 2	–	–	–	1391 ± 2	1372 ± 2	1354 ± 2
[1], x1 = 1	960 ± 2	955 ± 2	951 ± 2	–	–	–	1369 ± 2	1349 ± 2	1329 ± 2
[2], x1 = 0.041	–	–	–	1.469 ± 0.002	1.468 ± 0.002	1.466 ± 0.002	–	–	–
[2], x1 = 0.122	–	–	–	1.474 ± 0.002	1.472 ± 0.002	1.469 ± 0.002	–	–	–
[2], x1 = 0.201	–	–	–	1.478 ± 0.002	1.475 ± 0.002	1.473 ± 0.002	–	–	–
[2], x1 = 0.273	–	–	–	1.481 ± 0.002	1.479 ± 0.002	1.476 ± 0.002	–	–	–
[2], x1 = 0.37	–	–	–	1.485 ± 0.002	1.483 ± 0.002	1.48 ± 0.002	–	–	–
[2], x1 = 0.504	–	–	–	1.491 ± 0.002	1.488 ± 0.002	1.485 ± 0.002	–	–	–
[2], x1 = 0.628	–	–	–	1.495 ± 0.002	1.492 ± 0.002	1.489 ± 0.002	–	–	–
[2], x1 = 0.709	–	–	–	1.498 ± 0.002	1.495 ± 0.002	1.491 ± 0.002	–	–	–
[2], x1 = 0.822	–	–	–	1.501 ± 0.002	1.498 ± 0.002	1.495 ± 0.002	–	–	–
[2], x1 = 1	–	–	–	1.505 ± 0.002	1.503 ± 0.002	1.499 ± 0.002	–	–	–

CCOc1ccccc1 [ethoxybenzene] + CN(C)C=O
Settings	mass density, 298 K [kg/m3]	mass density, 303 K [kg/m3]	mass density, 308 K [kg/m3]	refractive index, 298 K	refractive index, 303 K	refractive index, 308 K	speed of sound, 298 K [m/s]	speed of sound, 303 K [m/s]	speed of sound, 308 K [m/s]
[1], x1 = 0.031	946 ± 2	941 ± 2	936 ± 2	–	–	–	1452 ± 2	1432 ± 2	1415 ± 2
[1], x1 = 0.091	948 ± 2	943 ± 2	939 ± 2	–	–	–	1443 ± 2	1424 ± 2	1406 ± 2
[1], x1 = 0.153	950 ± 2	945 ± 2	941 ± 2	–	–	–	1435 ± 2	1415 ± 2	1398 ± 2
[1], x1 = 0.223	952 ± 2	947 ± 2	943 ± 2	–	–	–	1427 ± 2	1407 ± 2	1389 ± 2
[1], x1 = 0.304	954 ± 2	949 ± 2	945 ± 2	–	–	–	1418 ± 2	1398 ± 2	1380 ± 2
[1], x1 = 0.463	956 ± 2	952 ± 2	948 ± 2	–	–	–	1403 ± 2	1383 ± 2	1365 ± 2
[1], x1 = 0.556	957 ± 2	953 ± 2	949 ± 2	–	–	–	1396 ± 2	1376 ± 2	1357 ± 2
[1], x1 = 0.642	958 ± 2	954 ± 2	949 ± 2	–	–	–	1390 ± 2	1370 ± 2	1350 ± 2
[1], x1 = 0.8	959 ± 2	955 ± 2	950 ± 2	–	–	–	1379 ± 2	1360 ± 2	1340 ± 2
[1], x1 = 1	960 ± 2	955 ± 2	951 ± 2	–	–	–	1369 ± 2	1349 ± 2	1329 ± 2
[2], x1 = 0.031	–	–	–	1.431 ± 0.002	1.43 ± 0.002	1.427 ± 0.002	–	–	–
[2], x1 = 0.091	–	–	–	1.437 ± 0.002	1.435 ± 0.002	1.432 ± 0.002	–	–	–
[2], x1 = 0.153	–	–	–	1.442 ± 0.002	1.44 ± 0.002	1.437 ± 0.002	–	–	–
[2], x1 = 0.223	–	–	–	1.448 ± 0.002	1.446 ± 0.002	1.442 ± 0.002	–	–	–
[2], x1 = 0.304	–	–	–	1.455 ± 0.002	1.452 ± 0.002	1.449 ± 0.002	–	–	–
[2], x1 = 0.463	–	–	–	1.468 ± 0.002	1.465 ± 0.002	1.461 ± 0.002	–	–	–
[2], x1 = 0.556	–	–	–	1.475 ± 0.002	1.471 ± 0.002	1.468 ± 0.002	–	–	–
[2], x1 = 0.642	–	–	–	1.481 ± 0.002	1.478 ± 0.002	1.474 ± 0.002	–	–	–
[2], x1 = 0.8	–	–	–	1.493 ± 0.002	1.489 ± 0.002	1.485 ± 0.002	–	–	–
[2], x1 = 1	–	–	–	1.505 ± 0.002	1.503 ± 0.002	1.499 ± 0.002	–	–	–
